Data taken from patent US5712109A, “Antifungal agent produced by arthrinium arundinis ATCC 74359” (Merck & Co., Inc., priority 1997, dated 1998).
In brackets after ≈: the same amount, converted by molar mass.

Columns and labels:
Format in all cases: cell-based
[1] = test system: Candida pseudotropicalis (MY2099); test: broth microdilution antifungal assay, Candida pseudotropicalis MY2099; details: Kluyveromyces marxianus
Description: (§1) In the microbroth dilution assay, microorganisms were selected by streaking a yeast culture on Sabouraud dextrose agar (SDA) and incubating for 24-48 hours at 35°-37° C. Three to five characteristic colonies were selected and transferred to a fresh plate and incubated under similar conditions. From the regrowth, 3 to 5 colonies were selected and suspended in 10 milliliters of YM broth (Difco) and incubated for 4 hours at 35°-37° C. shaking at 225 rpm. The 4 hour broth cultures were adjusted optically to 86% transmission resulting in a concentration of 1-5×10^6 cfu/ml which was further diluted 1:100 in YNBD (yeast nitrogen base with 1% dextrose) to obtain a concentration of 1-5×10^4 cfu/ml for use as inocula. […]
(§2) The plates containing the diluted compounds were then inoculated with 75 μl/well of the appropriate microorganism and incubated for 48 hours at 35°-37° C. with MIC (minimum inhibitory concentration) determinations carded out after 24 hours of incubation (except Cryptococcus strains which are read at 48 hours). […]
(§3) After recording M/Cs at 24 hours, the microtiter plates were shaken gently to resuspend the cells. […] For Cryptococcus neoformans, SDA plates were inoculated at 48 hours after recording MICs and incubated 48 hours before reading the MFG. […]

[2] = test system: Saccharomyces cerevisiae (MY2140); test: broth microdilution antifungal assay, Saccharomyces cerevisiae MY2140
Description: as §1, §2, §3

[3] = test system: Candida parapsilosis (MY1010); test: broth microdilution antifungal assay, Candida parapsilosis MY1010; details: Lodderomyces parapsilosis
Description: as §1, §2, §3

[4] = test system: Candida glabrata (MY1381); test: broth microdilution antifungal assay, Candida glabrata MY1381; details: Nakaseomyces glabratus
Description: as §1, §2, §3

[5] = test system: Candida albicans (CLY539); test: broth microdilution antifungal assay, Candida albicans CLY539
Description: as §1, §2, §3

[6] = test system: Cryptococcus neoformans (MY2062); test: broth microdilution antifungal assay, Cryptococcus neoformans MY2062
Description: (§4) In the microbroth dilution assay, microorganisms were selected by streaking a yeast culture on Sabouraud dextrose agar (SDA) and incubating for 24-48 hours at 35°-37° C. Three to five characteristic colonies were selected and transferred to a fresh plate and incubated under similar conditions. From the regrowth, 3 to 5 colonies were selected and suspended in 10 milliliters of YM broth (Difco) and incubated for 4 hours at 35°-37° C. shaking at 225 rpm. The 4 hour broth cultures were adjusted optically to 86% transmission resulting in a concentration of 1-5×10^6 cfu/ml which was further diluted 1:100 in YNBD (yeast nitrogen base with 1% dextrose) to obtain a concentration of 1-5×10^4 cfu/ml for use as inocula.
(§5) The test compound was dissolved at 256 μg/ml in 10% DMSO and diluted 2× into the first well to achieve a concentration of 256 μg/ml at 5% DMSO in the first well. Compounds are subsequently serially diluted 2× and cell suspension is added to each well resulting in an additional 2× dilution of compound. 75 μl of said solution is delivered to each well in colunto 1 of a 96-well, U-bottomed plate. […]
as §3

[7] = test system: Aspergillus fumigatus (MY5668); test: broth microdilution antifungal assay, Aspergillus fumigatus MY5668
Description: as §1, §2
(§6) No MFC values are indicated for Aspergillus furnigatus since colony counts are unreliable with filamentous species. […] The MEC is scored macroscopically by direct observation of the plate wells after 24 hours and reflects microscopic alterations in cell morphology (Kurtz et al, AAC 1994 38:1480-1489).

[8] = test system: Candida guillermondii (MY1019); test: broth microdilution antifungal assay, Candida guillermondii MY1019
Description: as §1, §2, §3

[9] = test system: Candida tropicalis (MY1012); test: broth microdilution antifungal assay, Candida tropicalis MY1012
Description: as §1, §2, §3

filamentous fungi = test: agar plate inhibition zone test against filamentous fungi; details: agar plates, 28° C. or 37° C., 24 hours
Description: The compound is also useful for inhibiting the growth of filamentous fungi. Such use may be illustrated in the following tests with Aspergillus flavus, Fusarium oxysporum, Ustilago zeae and the like. Inocula for filamentous fungi are prepared by scraping the surface of stock plates maintained on potato dextrose agar with a moistened sterile dacron swab. The spores and mycelia are then suspended in 10 milliliters of sterile potato dextrose broth and adjusted to 70 percent transmission at 660 nm. The samples to be tested for production of antifungal agent are applied directly to the agar plates as methanol solutions. When the sample to be tested is crude broth, it may be centrifuged prior to application. The assay plates are then incubated at either 28° C. or 37° C. for 24 hours. Following incubation, the inhibition zones are measured. Effects on growth are also noted as to appearance.

[10] = test system: Cryptococcus neoformans (MY2061); test: broth microdilution antifungal assay, Cryptococcus neoformans MY2061
Description: as §4, §5, §3

Candida albicans (CA2) = test: broth microdilution antifungal assay, Candida albicans CA2
Description: as §1, §2, §3

[11] = test system: Aspergillus fumigatus (MY4839); test: broth microdilution antifungal assay, Aspergillus fumigatus MY4839
Description: as §1, §2, §6

panel of fungi = test: broth microdilution antifungal assay, panel of fungi, comparison with amphotericin B; details: MIC/MFC broth microdilution assay
Description: In the microbroth dilution assay, microorganisms were selected by streaking a yeast culture on Sabouraud dextrose agar (SDA) and incubating for 24-48 hours at 35°-37° C. Three to five characteristic colonies were selected and transferred to a fresh plate and incubated under similar conditions. From the regrowth, 3 to 5 colonies were selected and suspended in 10 milliliters of YM broth (Difco) and incubated for 4 hours at 35°-37° C. shaking at 225 rpm. […]
as §2, §3, §6

[12] = test system: Candida albicans (MY1055); test: broth microdilution antifungal assay, Candida albicans MY1055
Description: as §1, §2, §3

Candida krusei = test: broth microdilution antifungal assay, Candida krusei; details: Pichia kudriavzevii
Description: as §1, §2, §3

[13] = test system: Candida tropicalis (MY1124); test: broth microdilution antifungal assay, Candida tropicalis MY1124
Description: as §1, §2, §3

[14] = 24 hours, 35°-37° C., read-out: Minimum Inhibitory Concentration (MIC)
[15] = no growth or growth of ≤4 colonies on SDA, read-out: Minimum Fungicidal Concentration (MFC)
[16] = SDA incubated 48 hours, no growth or growth of ≤4 colonies, read-out: Minimum Fungicidal Concentration (MFC)
[17] = read at 48 hours, 35°-37° C., read-out: Minimum Inhibitory Concentration (MIC)
[18] = severe morphological change, scored macroscopically after 24 hours, read-out: Minimum Effective Concentration (MEC)

## CC(CCC(O)C(C)(O)CO)C1(O)CCC2(C)C3=C(CCC21C)C1(C)CCC(OC(=O)CCC(=O)O)C(C)(C)C1CC3 (centres unmarked) [Compound I]
[1]; [14]
  MIC: 8 µg/mL (≈ 13.5 µM)
[1]; [15]
  MFC: 8 µg/mL (≈ 13.5 µM)
[2]; [14]
  MIC: 8 µg/mL (≈ 13.5 µM)
[2]; [15]
  MFC: 8 µg/mL (≈ 13.5 µM)
[3]; [14]
  MIC: 4 µg/mL (≈ 6.75 µM)
[3]; [15]
  MFC: 2 µg/mL (≈ 3.37 µM)
[4]; [14]
  MIC: 2 µg/mL (≈ 3.37 µM)
[4]; [15]
  MFC: 1 µg/mL (≈ 1.69 µM)
[5]; [14]
  MIC: 2 µg/mL (≈ 3.37 µM)
[5]; [15]
  MFC: 2 µg/mL (≈ 3.37 µM)
[6]; [16]
  MFC: 64 µg/mL (≈ 108 µM)
[6]; [17]
  MIC: 32 µg/mL (≈ 54 µM)
[7]; [14]
  MIC: 64 µg/mL (≈ 108 µM)
[7]; [18]
  minimal effective concentration: 1 µg/mL
[8]; [14]
  MIC: 64 µg/mL (≈ 108 µM)
[8]; [15]
  MFC: 64 µg/mL (≈ 108 µM)
[9]; [14]
  MIC: 16 µg/mL (≈ 27 µM)
[9]; [15]
  MFC: 16 µg/mL (≈ 27 µM)
Filamentous fungi
  inhibition of growth of the fungal organisms (inhibition zones): effectively inhibit growth of the fungal organisms
[10]; [16]
  MFC: 32 µg/mL (≈ 54 µM)
[10]; [17]
  MIC: > 64 µg/mL
Candida albicans (CA2); [14]
  MIC: 16 µg/mL (≈ 27 µM)
Candida albicans (CA2); [15]
  MFC: 16 µg/mL (≈ 27 µM)
[11]; [14]
  MIC: > 64 µg/mL
[11]; [18]
  minimal effective concentration: 0.5 µg/mL
Panel of fungi
  effectiveness against a panel of fungi relative to amphotericin B: at concentrations comparable to an established antifungal agent, amphotericin B
[12]; [14]
  MIC: 4 µg/mL (≈ 6.75 µM)
[12]; [15]
  MFC: 4 µg/mL (≈ 6.75 µM)
Candida krusei; [14]
  MIC: 4 µg/mL (≈ 6.75 µM)
Candida krusei; [15]
  MFC: 2 µg/mL (≈ 3.37 µM)
[13]; [14]
  MIC: 8 µg/mL (≈ 13.5 µM)
[13]; [15]
  MFC: 8 µg/mL (≈ 13.5 µM)
